Results published in US20070203091A1, “Methods and therapeutic compositions for improving liver, blood flow and skeletal muscle functions in advanced diseases and aging” (priority 2006, published 2007).
Entries after “also recorded” stand apart in the source; their conditions may differ. Read-outs that look alike come from different tables or passages of the source.

Assays:
[1] = in vivo; cited from earlier work
[2] = cited from earlier work
[3] = Cachexia markers Part I: serum albumin, pre-albumin, C-Reactive Protein, Phase I study; format: in vivo, human; settings: for C-Reactive Protein, Change from Baseline, Mean / C-Reactive Protein, Change from Baseline, Median / C-Reactive Protein, Observed Values, Mean / C-Reactive Protein, Observed Values, Median / Pre-albumin, Change from Baseline, Mean / Pre-albumin, Change from Baseline, Median / Pre-albumin, Observed Values, Mean / Pre-albumin, Observed Values, Median / Serum Albumin, Change from Baseline, Mean / Serum Albumin, Change from Baseline, Median / Serum Albumin, Observed Values, Mean / Serum Albumin, Observed Values, Median: ITT
From the text: The data for albumin, LDH and Bilirubin support claims reciting improvement in liver function by claimed treatment of a human host in need thereof. Serum LDH levels are an established strong independent negative prognostic factor, inversely related to survival in a great variety of adverse clinical conditions. In advanced refractory cancers, high LDH and low Karnofsky's performance status are among the strongest established independent negative prognostic factors of survival and quality of life (29).

[4] = ATP infusion rate 500-1000 μg/kg/min
[5] = ATP infusion rate ≦100 μg/kg/min
[6] = Week 1 (Infusion 1), baseline, N=15

Nc1ncnc2c1ncn2[C@@H]1O[C@H](COP(=O)(O)OP(=O)(O)OP(=O)(O)O)[C@@H](O)[C@H]1O [ATP, adenosine 5′-triphosphate]
half-life of expanded ATP pools in red blood cells [1]: about 6 hours | Cardiac Output [2, 4]: Increase | Heart Rate [2, 4]: Increase | Pulmonary Arterial Pressure [2, 4]: Decrease | Pulmonary Vascular Resistance [2, 4]: Decrease | Systemic Arterial Pressure [2, 4]: Decrease | Systemic Vascular Resistance [2, 4]: Decrease | Cardiac Output [2, 5]: Small Increase | Heart Rate [2, 5]: do not affect; also recorded: No Change | Pulmonary Arterial Pressure [2, 5]: No Change | Pulmonary Vascular Resistance [2, 5]: Decrease | Systemic Arterial Pressure [2, 5]: do not affect; also recorded: No Change | Systemic Vascular Resistance [2, 5]: Small Decrease | C-Reactive Protein, Change from Baseline, Mean [3, 6]: 0.0 mg/dL | C-Reactive Protein, Change from Baseline, Median [3, 6]: 0.0 mg/dL | C-Reactive Protein, Observed Values, Mean [3, 6]: 5.1 mg/dL | C-Reactive Protein, Observed Values, Median [3, 6]: 3.4 mg/dL | Pre-albumin, Change from Baseline, Mean [3, 6]: 0.0 mg/dL | Pre-albumin, Change from Baseline, Median [3, 6]: 0.0 mg/dL | Pre-albumin, Observed Values, Mean [3, 6]: 19.7 mg/dL | Pre-albumin, Observed Values, Median [3, 6]: 18.0 mg/dL | Serum Albumin, Change from Baseline, Mean [3, 6]: 0.0 g/dL | Serum Albumin, Change from Baseline, Median [3, 6]: 0.0 g/dL | Serum Albumin, Observed Values, Mean [3, 6]: 3.3 g/dL | Serum Albumin, Observed Values, Median [3, 6]: 3.4 g/dL | Pre-albumin, Change from Baseline, Mean ([3]; Week 2 (Infusion 2), N=13): -1.2 mg/dL | Pre-albumin, Change from Baseline, Median ([3]; Week 2 (Infusion 2), N=13): 0.0 mg/dL | Pre-albumin, Observed Values, Mean ([3]; Week 2 (Infusion 2), N=13): 19.4 mg/dL | Pre-albumin, Observed Values, Median ([3]; Week 2 (Infusion 2), N=13): 17.0 mg/dL | C-Reactive Protein, Change from Baseline, Mean ([3]; Week 2 (Infusion 2), N=14): 0.1 mg/dL | C-Reactive Protein, Change from Baseline, Median ([3]; Week 2 (Infusion 2), N=14): 0.5 mg/dL | C-Reactive Protein, Observed Values, Mean ([3]; Week 2 (Infusion 2), N=14): 5.0 mg/dL | C-Reactive Protein, Observed Values, Median ([3]; Week 2 (Infusion 2), N=14): 3.3 mg/dL | Serum Albumin, Change from Baseline, Mean ([3]; Week 2 (Infusion 2), N=14): -0.1 g/dL | Serum Albumin, Change from Baseline, Median ([3]; Week 2 (Infusion 2), N=14): 0.0 g/dL | Serum Albumin, Observed Values, Mean ([3]; Week 2 (Infusion 2), N=14): 3.2 g/dL | Serum Albumin, Observed Values, Median ([3]; Week 2 (Infusion 2), N=14): 3.2 g/dL | C-Reactive Protein, Change from Baseline, Mean ([3]; Week 4 (Infusion 4), N=9): 2.5 mg/dL | C-Reactive Protein, Change from Baseline, Median ([3]; Week 4 (Infusion 4), N=9): 1.6 mg/dL | C-Reactive Protein, Observed Values, Mean ([3]; Week 4 (Infusion 4), N=9): 6.6 mg/dL | C-Reactive Protein, Observed Values, Median ([3]; Week 4 (Infusion 4), N=9): 6.1 mg/dL | Pre-albumin, Change from Baseline, Mean ([3]; Week 4 (Infusion 4), N=10): -1.3 mg/dL | Pre-albumin, Change from Baseline, Median ([3]; Week 4 (Infusion 4), N=10): 0.0 mg/dL | Pre-albumin, Observed Values, Mean ([3]; Week 4 (Infusion 4), N=10): 16.5 mg/dL | Pre-albumin, Observed Values, Median ([3]; Week 4 (Infusion 4), N=10): 17.0 mg/dL | Serum Albumin, Change from Baseline, Mean ([3]; Week 4 (Infusion 4), N=11): -0.2 g/dL | Serum Albumin, Change from Baseline, Median ([3]; Week 4 (Infusion 4), N=11): -0.2 g/dL | Serum Albumin, Observed Values, Mean ([3]; Week 4 (Infusion 4), N=11): 3.2 g/dL | Serum Albumin, Observed Values, Median ([3]; Week 4 (Infusion 4), N=11): 3.0 g/dL | C-Reactive Protein, Change from Baseline, Mean ([3]; Week 6 (Infusion 6), N=8): 0.2 mg/dL | C-Reactive Protein, Change from Baseline, Median ([3]; Week 6 (Infusion 6), N=8): 0.0 mg/dL | C-Reactive Protein, Observed Values, Mean ([3]; Week 6 (Infusion 6), N=8): 4.5 mg/dL | C-Reactive Protein, Observed Values, Median ([3]; Week 6 (Infusion 6), N=8): 2.5 mg/dL | Pre-albumin, Change from Baseline, Mean ([3]; Week 6 (Infusion 6), N=8): -7.5 mg/dL | Pre-albumin, Change from Baseline, Median ([3]; Week 6 (Infusion 6), N=8): -4.5 mg/dL | Pre-albumin, Observed Values, Mean ([3]; Week 6 (Infusion 6), N=8): 16.6 mg/dL | Pre-albumin, Observed Values, Median ([3]; Week 6 (Infusion 6), N=8): 16.0 mg/dL | Serum Albumin, Change from Baseline, Mean ([3]; Week 6 (Infusion 6), N=9): -0.1 g/dL | Serum Albumin, Change from Baseline, Median ([3]; Week 6 (Infusion 6), N=9): -0.2 g/dL | Serum Albumin, Observed Values, Mean ([3]; Week 6 (Infusion 6), N=9): 3.2 g/dL | Serum Albumin, Observed Values, Median ([3]; Week 6 (Infusion 6), N=9): 3.1 g/dL | C-Reactive Protein, Change from Baseline, Mean ([3]; Week 8 (Infusion 8), N=6): 3.7 mg/dL | C-Reactive Protein, Change from Baseline, Median ([3]; Week 8 (Infusion 8), N=6): 0.0 mg/dL | C-Reactive Protein, Observed Values, Mean ([3]; Week 8 (Infusion 8), N=6): 9.0 mg/dL | C-Reactive Protein, Observed Values, Median ([3]; Week 8 (Infusion 8), N=6): 4.7 mg/dL | Pre-albumin, Change from Baseline, Mean ([3]; Week 8 (Infusion 8), N=7): -6.3 mg/dL | Pre-albumin, Change from Baseline, Median ([3]; Week 8 (Infusion 8), N=7): -4.0 mg/dL | Pre-albumin, Observed Values, Mean ([3]; Week 8 (Infusion 8), N=7): 19.6 mg/dL | Pre-albumin, Observed Values, Median ([3]; Week 8 (Infusion 8), N=7): 19.0 mg/dL | Serum Albumin, Change from Baseline, Mean ([3]; Week 8 (Infusion 8), N=7): -0.1 g/dL | Serum Albumin, Change from Baseline, Median ([3]; Week 8 (Infusion 8), N=7): -0.1 g/dL | Serum Albumin, Observed Values, Mean ([3]; Week 8 (Infusion 8), N=7): 3.3 g/dL | Serum Albumin, Observed Values, Median ([3]; Week 8 (Infusion 8), N=7): 3.4 g/dL | C-Reactive Protein, Change from Baseline, Mean ([3]; Week 10 (Follow-up), N=4): 6.0 mg/dL | C-Reactive Protein, Change from Baseline, Median ([3]; Week 10 (Follow-up), N=4): -0.7 mg/dL | C-Reactive Protein, Observed Values, Mean ([3]; Week 10 (Follow-up), N=4): 11.2 mg/dL | C-Reactive Protein, Observed Values, Median ([3]; Week 10 (Follow-up), N=4): 7.0 mg/dL | Pre-albumin, Change from Baseline, Mean ([3]; Week 10 (Follow-up), N=6): -8.3 mg/dL | Pre-albumin, Change from Baseline, Median ([3]; Week 10 (Follow-up), N=6): -1.0 mg/dL | Pre-albumin, Observed Values, Mean ([3]; Week 10 (Follow-up), N=6): 20.2 mg/dL | Pre-albumin, Observed Values, Median ([3]; Week 10 (Follow-up), N=6): 18.5 mg/dL | Serum Albumin, Change from Baseline, Mean ([3]; Week 10 (Follow-up), N=6): 0.0 g/dL | Serum Albumin, Change from Baseline, Median ([3]; Week 10 (Follow-up), N=6): -0.1 g/dL | Serum Albumin, Observed Values, Mean ([3]; Week 10 (Follow-up), N=6): 3.6 g/dL | Serum Albumin, Observed Values, Median ([3]; Week 10 (Follow-up), N=6): 3.7 g/dL | C-Reactive Protein, Change from Baseline, Mean ([3]; Week 13 (Follow-up), N=5): 5.3 mg/dL | C-Reactive Protein, Change from Baseline, Median ([3]; Week 13 (Follow-up), N=5): 0.0 mg/dL | C-Reactive Protein, Observed Values, Mean ([3]; Week 13 (Follow-up), N=5): 9.1 mg/dL | C-Reactive Protein, Observed Values, Median ([3]; Week 13 (Follow-up), N=5): 0.4 mg/dL | Pre-albumin, Change from Baseline, Mean ([3]; Week 13 (Follow-up), N=5): -8.4 mg/dL | Pre-albumin, Change from Baseline, Median ([3]; Week 13 (Follow-up), N=5): 0.0 mg/dL | Pre-albumin, Observed Values, Mean ([3]; Week 13 (Follow-up), N=5): 22.4 mg/dL | Pre-albumin, Observed Values, Median ([3]; Week 13 (Follow-up), N=5): 24.0 mg/dL | Serum Albumin, Change from Baseline, Mean ([3]; Week 13 (Follow-up), N=6): -0.0 g/dL | Serum Albumin, Change from Baseline, Median ([3]; Week 13 (Follow-up), N=6): -0.1 g/dL | Serum Albumin, Observed Values, Mean ([3]; Week 13 (Follow-up), N=6): 3.5 g/dL | Serum Albumin, Observed Values, Median ([3]; Week 13 (Follow-up), N=6): 3.5 g/dL | levels of C-Reactive Protein ([3]; after 13 weeks): continued to increase | levels of pre-albumin ([3]; after 13 weeks): decreased | serum albumin levels ([3]; after 13 weeks): stabilize and prevent a drop
